From US8901118B2, “Compounds and methods for kinase modulation, and indications therefor” (Plexxikon Inc., priority 2010, dated 2014)

Experiments:
[1] = biological target: T1, BCR-NTRK2 BaF3 cells (Homo sapiens, UniProt Q16620); assay: BaF3 BCR-NTRK2 cell proliferation assay (ATPlite); format: cell-based; conditions: read-out: Inhibition of Cell Proliferation IC50, BCR/BaF3 TrkB
T1 construct: fused on or other part: P11274 (Breakpoint cluster region protein)
Method in brief: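 Growth inhibition over 3 days at 37 °C; IC50 from ATPlite luminescence, 8 concentrations (1:3 steps, max 10 μM). BaF3 fusion lines were tested without IL-3.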

[2] = Relative solubility by turbidity in aqueous buffers (pH 1.5, 4.5, 6.8, 7.4); format: physicochemical; conditions: for turbidity threshold (L, M, H) 1.4: pH 1.5 (SGF); for turbidity threshold (L, M, H) 4.5: pH 4.5 (SIF); for turbidity threshold (L, M, H) 6.8: pH 6.8 (SIF); for turbidity threshold (L, M, H) 7.4: pH 7.4 (HEPES)
Method in brief: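 Twofold DMSO dilutions of a 25 mM stock were spiked into SGF (0.5M NaCl, pH 1.5), SIF (0.05M NaH2PO4, pH 4.5 and 6.8) or HEPES buffer (10 mM HEPES, 150 mM NaCl, pH 7.4). Absorbance was read at 490, 535 and 650 nm. The endpoint is the concentration crossing O.D. 0.01, averaged across wavelengths.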

T1 sequence (Q16620 538-807): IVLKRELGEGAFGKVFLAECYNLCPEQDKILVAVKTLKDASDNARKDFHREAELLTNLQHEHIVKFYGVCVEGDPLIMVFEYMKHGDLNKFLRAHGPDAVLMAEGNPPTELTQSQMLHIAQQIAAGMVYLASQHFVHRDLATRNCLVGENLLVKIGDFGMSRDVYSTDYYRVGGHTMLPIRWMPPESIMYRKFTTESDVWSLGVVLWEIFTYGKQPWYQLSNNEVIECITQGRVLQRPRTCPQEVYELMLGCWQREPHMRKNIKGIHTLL

| SMILES | IC50 [1] [nM] | turbidity threshold (L, M, H) 1.4 [2] | turbidity threshold (L, M, H) 4.5 [2] | turbidity threshold (L, M, H) 6.8 [2] | turbidity threshold (L, M, H) 7.4 [2] |
| --- | --- | --- | --- | --- | --- |
| COc1cncc(Nc2ccc(C(=O)c3c[nH]c4ncnc(NCC(F)(F)F)c34)c(F)n2)c1 [Compound P-4103, [2-fluoro-6-[(5-methoxy-3-pyridyl)amino]-3-pyridyl]-[4-(2,2,2-trifluoroethylamino)-7H-pyrrolo[2,3-d]pyrimidin-5-yl]methanone] | > 1000 | L (low solubility if the threshold concentration is <31.3 μM) | M (moderate solubility if the threshold concentration is 31.3 μM to 250 μM) | M (moderate solubility if the threshold concentration is 31.3 μM to 250 μM) | M (moderate solubility if the threshold concentration is 31.3 μM to 250 μM) |
| COc1cncc(Nc2ccc(C(=O)c3c[nH]c4ncnc(NC5CCCCC5)c34)c(F)n2)c1 [Compound P-4104, [4-(cyclohexylamino)-7H-pyrrolo[2,3-d]pyrimidin-5-yl]-[2-fluoro-6-[(5-methoxy-3-pyridyl)amino]-3-pyridyl]methanone] | < 100 | M (moderate solubility if the threshold concentration is 31.3 μM to 250 μM) | L (low solubility if the threshold concentration is <31.3 μM) | L (low solubility if the threshold concentration is <31.3 μM) | L (low solubility if the threshold concentration is <31.3 μM) |
| CCCNc1ncnc2[nH]cc(C(=O)c3ccc(Nc4cncc(OC)c4)nc3F)c12 [Compound P-4105, [2-fluoro-6-[(5-methoxy-3-pyridyl)amino]-3-pyridyl]-[4-(propylamino)-7H-pyrrolo[2,3-d]pyrimidin-5-yl]methanone] | < 1000 | M (moderate solubility if the threshold concentration is 31.3 μM to 250 μM) | M (moderate solubility if the threshold concentration is 31.3 μM to 250 μM) | M (moderate solubility if the threshold concentration is 31.3 μM to 250 μM) | M (moderate solubility if the threshold concentration is 31.3 μM to 250 μM) |
| COc1cncc(Nc2ccc(C(=O)c3c[nH]c4ncnc(NC(C)C)c34)c(F)n2)c1 [Compound P-4106, [2-fluoro-6-[(5-methoxy-3-pyridyl)amino]-3-pyridyl]-[4-(isopropylamino)-7H-pyrrolo[2,3-d]pyrimidin-5-yl]methanone] | < 100 | M (moderate solubility if the threshold concentration is 31.3 μM to 250 μM) | M (moderate solubility if the threshold concentration is 31.3 μM to 250 μM) | L (low solubility if the threshold concentration is <31.3 μM) | M (moderate solubility if the threshold concentration is 31.3 μM to 250 μM) |
| COc1cncc(Nc2ccc(C(=O)c3c[nH]c4ncnc(NC5CC5)c34)c(F)n2)c1 [Compound P-4107, [4-(cyclopropylamino)-7H-pyrrolo[2,3-d]pyrimidin-5-yl]-[2-fluoro-6-[(5-methoxy-3-pyridyl)amino]-3-pyridyl]methanone] | < 100 | M (moderate solubility if the threshold concentration is 31.3 μM to 250 μM) | M (moderate solubility if the threshold concentration is 31.3 μM to 250 μM) | M (moderate solubility if the threshold concentration is 31.3 μM to 250 μM) | M (moderate solubility if the threshold concentration is 31.3 μM to 250 μM) |
| CNc1ncnc2[nH]cc(C(=O)c3ccc(Nc4cncc(OC)c4)nc3F)c12 [Compound P-4108, [2-fluoro-6-[(5-methoxy-3-pyridyl)amino]-3-pyridyl]-[4-(methylamino)-7H-pyrrolo[2,3-d]pyrimidin-5-yl]methanone] | < 1000 | H (high solubility if the threshold concentration is >250 μm) | M (moderate solubility if the threshold concentration is 31.3 μM to 250 μM) | M (moderate solubility if the threshold concentration is 31.3 μM to 250 μM) | M (moderate solubility if the threshold concentration is 31.3 μM to 250 μM) |
| CC(C)Nc1ncnc2[nH]cc(C(=O)c3ccc(NC4CCCCC4)nc3Cl)c12 [Compound P-4109, [2-chloro-6-(cyclohexylamino)-3-pyridyl]-[4-(isopropylamino)-7H-pyrrolo[2,3-d]pyrimidin-5-yl]methanone] | < 1000 | L (low solubility if the threshold concentration is <31.3 μM) | L (low solubility if the threshold concentration is <31.3 μM) | L (low solubility if the threshold concentration is <31.3 μM) | L (low solubility if the threshold concentration is <31.3 μM) |
| CNc1ncnc2[nH]cc(C(=O)c3ccc(NC4CCCCC4)nc3Cl)c12 [Compound P-4110, [2-chloro-6-(cyclohexylamino)-3-pyridyl]-[4-(methylamino)-7H-pyrrolo[2,3-d]pyrimidin-5-yl]methanone] | > 1000 | M (moderate solubility if the threshold concentration is 31.3 μM to 250 μM) | L (low solubility if the threshold concentration is <31.3 μM) | L (low solubility if the threshold concentration is <31.3 μM) | L (low solubility if the threshold concentration is <31.3 μM) |
| Cc1ccc(Nc2ccc(C(=O)c3c[nH]c4ncnc(NC5CCCCC5)c34)c(F)n2)cn1 [Compound P-4111, [4-(cyclohexylamino)-7H-pyrrolo[2,3-d]pyrimidin-5-yl]-[2-fluoro-6-[(6-methyl-3-pyridyl)amino]-3-pyridyl]methanone] | < 10 | H (high solubility if the threshold concentration is >250 μm) | L (low solubility if the threshold concentration is <31.3 μM) | L (low solubility if the threshold concentration is <31.3 μM) | L (low solubility if the threshold concentration is <31.3 μM) |
| Cc1ccc(Nc2ccc(C(=O)c3c[nH]c4ncnc(NCC(F)(F)F)c34)c(F)n2)cn1 [Compound P-4112, [2-fluoro-6-[(6-methyl-3-pyridyl)amino]-3-pyridyl]-[4-(2,2,2-trifluoroethylamino)-7H-pyrrolo[2,3-d]pyrimidin-5-yl]methanone] | < 100 | M (moderate solubility if the threshold concentration is 31.3 μM to 250 μM) | M (moderate solubility if the threshold concentration is 31.3 μM to 250 μM) | M (moderate solubility if the threshold concentration is 31.3 μM to 250 μM) | H (high solubility if the threshold concentration is >250 μm) |
| CNc1ncnc2[nH]cc(C(=O)c3ccc(Nc4ccc(C)nc4)nc3F)c12 [Compound P-4115, [2-fluoro-6-[(6-methyl-3-pyridyl)amino]-3-pyridyl]-[4-(methylamino)-7H-pyrrolo[2,3-d]pyrimidin-5-yl]methanone] | < 100 | H (high solubility if the threshold concentration is >250 μm) | M (moderate solubility if the threshold concentration is 31.3 μM to 250 μM) | M (moderate solubility if the threshold concentration is 31.3 μM to 250 μM) | M (moderate solubility if the threshold concentration is 31.3 μM to 250 μM) |
| CCc1ccc(Nc2ccc(C(=O)c3c[nH]c4ncnc(NC5CCOCC5)c34)c(F)n2)cn1 [Compound P-4116, [6-[(6-ethyl-3-pyridyl)amino]-2-fluoro-3-pyridyl]-[4-(tetrahydropyran-4-ylamino)-7H-pyrrolo[2,3-d]pyrimidin-5-yl]methanone] | < 10 | H (high solubility if the threshold concentration is >250 μm) | M (moderate solubility if the threshold concentration is 31.3 μM to 250 μM) | M (moderate solubility if the threshold concentration is 31.3 μM to 250 μM) | M (moderate solubility if the threshold concentration is 31.3 μM to 250 μM) |
